What was measured:
OVX-induced osteopenia = experiment: Assay 1: bone mass / BMD protection in OVX rats; assay type: in vivo, SD rats; settings: for BMD % (protection) / OVX-induced osteopenia: OVX rats, 35 day treatment; for OVX-induced osteopenia / bone density: result in words; for bone density: OVX/hypophysectomized (HYPOX) rats
Method: (§1) Six month old, virgin SD rats are OVX or OVX/hypophysectomized (HYPOX) and treated with vehicle (20% cyclodextrin, PO), raloxifene (0.1 to 10 mg/kg/day, PO) or ethynyl estradiol EE2; 0.001 to 0.1 mg/kg/day, PO). A sham, vehicle treated control is also included. Serum and/or long bones are collected after a 35 day or shorter treatment period. Serum cytokine determinations are performed by bioassay.
(§2) No consistent changes in other serum cytokines is detected.

IL-6 [1] = experiment: Assay 1: serum IL-6 in OVX rats (bioassay); assay type: in vivo, SD rats
Method: as §1, §2

[2] = tested on: LIF stimulated cell proliferation (B9 hybridoma); experiment: Assay 3: cytokine dependent cell proliferation, LIF; assay type: cell-based; settings: Mus musculus; 50% inhibition of LIF dependent cell proliferation; 0.01 to 1 µM tested
Method: (§3) The following mouse cell lines were used for cytokine bioassays: CTLL.6 cytolytic T cell - IL-2, IL-4; 11.6 helper T cell - IL-4; T1165.17 plasmacytoma - IL-1, IL-6; B9 hybridoma - IL-6, LIF (leukemia inhibitory factor). Approximately 5,000 cells are seeded per duplicate well in 96-well flat-bottom microtiter plates in standard tissue culture medium (i.e. Iscove's Modified Dulbecco's Medium or Dulbecco's Modified Eagle's Medium supplemented with 25 mM Hepes, 2 mM L-glutamine, 50 µM 2-mercaptoethanol, 50 units/ml penicillin, 50 µg/ml streptomycin sulfate, and fetal bovine serum) containing vehicle (DMSO), raloxifene (0.01 to 1 µM) or 17-b-estradiol (0.01 to 1 µM) in the absence or presence of the indicated recombinant cytokine. Microtiter plates are incubated at 37°C in a humidified 10% CO2 incubator for 24 to 72 hours. At the end of that time, either 1 µCi 3H-thymidine or 100 µg of MTT (3-[4,5-dimethylthiazol-2-yl]-2,5-diphenyltetrazolium bromide) is added per well followed by an additional 4 to 6 hours of incubation. Microcultures pulsed using tritiated thymidine are harvested onto filter pads and counted by liquid scintillation. […] Optical density readings are taken at 570 nm with a reference wavelength of 690 nm to quantitate cell proliferation. […]

[3] = tested on: IL-6 stimulated cell proliferation (T1165.17 plasmacytoma; B9 hybridoma); experiment: Assay 3: cytokine dependent cell proliferation, IL-6; assay type: cell-based; settings: Mus musculus; 50% inhibition of IL-6 dependent cell proliferation; 0.01 to 1 µM tested
Method: as §3

[4] = tested on: IL-2 stimulated proliferation (CTLL.6 cytolytic T cell); experiment: Assay 3: cytokine dependent cell proliferation, IL-2; assay type: cell-based; settings: Mus musculus, 50% inhibition of IL-2 dependent cell proliferation, 0.01 to 1 µM tested
Method: as §3

[5] = tested on: IL-4 stimulated proliferation (CTLL.6 cytolytic T cell; 11.6 helper T cell); experiment: Assay 3: cytokine dependent cell proliferation, IL-4; assay type: cell-based; settings: Mus musculus, 50% inhibition of IL-4 dependent cell proliferation, 0.01 to 1 µM tested
Method: as §3

IL-6 [6] = experiment: Assay 2: IL-1-induced serum IL-6 in mice (ELISA); assay type: in vivo; settings: male BALB/c mice, 1 mg/kg PO for 3 days, then IL-1b 3 ug SC, 2 hours
Method: Ten week old male BALB/c mice are treated with vehicle (20% cyclodextrin, PO) or raloxifene (1 mg/kg, PO) for 3 days. On day 4, mice are treated with vehicle (saline, IP), LA-15.1 anti-IL-1 receptor monoclonal antibody (mAb) (250 ug, IP) or human recombinant IL-1b (3 ug, SC). After 2 hours, serum was collected by orbital sinus puncture and IL-6 levels quantitated by ELISA.
Injection of IL-1 into cyclodextrin treated mice induces a significant increase in serum IL-6 (193 ± 29 ng/ml) versus saline injected cyclodextrin treated mice (<1 ng/ml) (Table 2). […] The anti-IL-1 receptor mAb LA-15.1 completely attenuates the IL-1-induced rise in serum IL-6 levels.

[7] = OVX rats, 100 µg/kg, 35 day treatment
[8] = OVX rats, 35 day treatment, PO, result in words
[9] = animals treated for as few as four days post-OVX, result in words

## C[C@]12CC[C@@H]3c4ccc(O)cc4CC[C@H]3[C@@H]1CC[C@@H]2O [17-β-E2, 17-b-estradiol]
OVX-induced osteopenia; 100 µg/kg
  BMD % (protection): 106.4 ± 11.8%
IL-6 [1]; [7]
  Serum IL-6: 0.07 ± 0.10 ng/mL
[2]
  IC50: > 1 µM
[3]
  IC50: > 1 µM
[4]
  IC50: > 1 µM
[5]
  IC50: > 1 µM

## O=C(c1ccc(OCCN2CCCCC2)cc1)c1c(-c2ccc(O)cc2)sc2cc(O)ccc12 [Raloxifene]
OVX-induced osteopenia; 0.1 mg.kg, PO
  BMD % (protection): 63.88 ± 19.8%
OVX-induced osteopenia; 1 mg/kg, PO
  BMD % (protection): 82.50 ± 17.17%
OVX-induced osteopenia; 10 mg/kg, PO
  BMD % (protection): 82.09 ± 7.02%
OVX-induced osteopenia; PO
  OVX-induced osteopenia: significantly attenuate
OVX-induced osteopenia
  bone density: did not respond
IL-6 [1]; OVX rats, 0.1 mg.kg, PO, 35 day treatment
  Serum IL-6: 4.32 ± 1.65 ng/mL
IL-6 [1]; OVX rats, 1 mg/kg, PO, 35 day treatment
  Serum IL-6: 1.55 ± 0.48 ng/mL
IL-6 [1]; OVX rats, 10 mg/kg, PO, 35 day treatment
  Serum IL-6: 1.23 ± 0.45 ng/mL
IL-6 [1]; [8]
  rise in serum IL-6 levels: significantly attenuate
IL-6 [1]; [9]
  Serum IL-6: significant reduction
[2]
  IC50: 0.603 µM
[3]
  IC50: 0.719 µM
IL-6 [6]; 1 mg/kg
  IL-6: 90 ± 21 ng/mL
IL-6 [6]; listed as 139478, 1 mg/kg
  IL-6: 90 ± 2.1 ng/mL
[4]
  IC50: > 1 µM
[5]
  IC50: > 1 µM

## C#C[C@]1(O)CC[C@H]2[C@@H]3CCc4cc(O)ccc4[C@H]3CC[C@@]21C [Ethy, ethynyl estradiol]
OVX-induced osteopenia; 1 µg/kg
  BMD % (protection): 5.28 ± 11.83%
OVX-induced osteopenia; 10 µg/kg
  BMD % (protection): 57.25 ± 16.07%
OVX-induced osteopenia; 100 µg/kg
  BMD % (protection): 76.00 ± 18.3%
OVX-induced osteopenia; PO
  OVX-induced osteopenia: significantly attenuate
OVX-induced osteopenia
  bone density: did not respond
IL-6 [1]; OVX rats, 1 µg/kg, 35 day treatment
  Serum IL-6: 3.42 ± 2.23 ng/mL
IL-6 [1]; OVX rats, 10 µg/kg, 35 day treatment
  Serum IL-6: 1.84 ± 0.60 ng/mL
IL-6 [1]; [7]
  Serum IL-6: 0.20 ± 0.10 ng/mL
IL-6 [1]; [8]
  rise in serum IL-6 levels: significantly attenuate
IL-6 [1]; [9]
  Serum IL-6: significant reduction

Source: patent EP0724879A2, “2-Phenyl-3-azoylbenzothiopenes for inhibiting effects of IL-6” (ELI LILLY AND COMPANY, priority 1995, dated 1996)
